From patent US20250230193A1, “CYCLIC COMPOUND HAVING SELECTIVE KRAS INHIBITORY EFFECT ON HRAS AND NRAS” (CHUGAI SEIYAKU KABUSHIKI KAISHA, priority 2022, published 2025)
Where a SMILES comes first, the peptide text is derived from it. Bridges are numbered along the chain shown (N, C = ends). [ ]: non-standard residue; d: D form. The star is where a group is joined. hPhe(3-Cl-4-CF3) = N[C@@H](CCc1ccc(C(F)(F)F)c(Cl)c1)C(=O)O; NPrPhe(4-CF3) = CCCN[C@@H](Cc1ccc(C(F)(F)F)cc1)C(=O)O; NPrPhe(4-Me) = CCCN[C@@H](Cc1ccc(C)cc1)C(=O)O; 3Oxa8azabicyclo(3.2.1)octane = C1CC2COCC1N2*; NEtPhe(4-Me) = CCN[C@@H](Cc1ccc(C)cc1)C(=O)O; NMePhe(4-Me) = CN[C@@H](Cc1ccc(C)cc1)C(=O)O; NMeGly(cPent) = CN[C@H](C(=O)O)C1CCCC1; Hyp = O=C(O)[C@@H]1C[C@@H](O)CN1; NMeF = CN[C@@H](Cc1ccccc1)C(=O)O; NMeI = CC[C@H](C)[C@H](NC)C(=O)O; NMeD = CN[C@@H](CC(=O)O)C(=O)O; NMeL = CN[C@@H](CC(C)C)C(=O)O; NMeV = CN[C@H](C(=O)O)C(C)C; Morpholide = C1CN(*)CCO1; NMeA = CN[C@@H](C)C(=O)O; NMeAib = CNC(C)(C)C(=O)O; Nle = CCCC[C@H](N)C(=O)O; Piperidide = C1CCN(*)CC1; Ac5c = NC1(C(=O)O)CCCC1; Aze = O=C(O)[C@@H]1CCN1; Sar = CNCC(=O)O

What was measured:
[1] = target: GDP-bound NRAS wild-type protein (Homo sapiens, UniProt P01111); test: Binding to NRAS by surface plasmon resonance (SPR), Single Cycle Kinetics; details: KD ratio NRAS/KRAS, SPR
[2] = target: GDP-bound HRAS wild-type protein (Homo sapiens, UniProt P01112); test: Binding to HRAS by surface plasmon resonance (SPR), Single Cycle Kinetics; details: KD ratio HRAS/KRAS, SPR
GDP-bound HRAS wild-type protein, sequence (P01112 whole entry): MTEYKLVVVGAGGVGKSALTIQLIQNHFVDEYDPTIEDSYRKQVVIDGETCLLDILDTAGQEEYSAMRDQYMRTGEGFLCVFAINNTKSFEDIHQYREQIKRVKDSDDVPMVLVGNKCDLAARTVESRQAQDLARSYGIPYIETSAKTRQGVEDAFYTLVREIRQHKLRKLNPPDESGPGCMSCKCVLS

GDP-bound NRAS wild-type protein, sequence (P01111 whole entry): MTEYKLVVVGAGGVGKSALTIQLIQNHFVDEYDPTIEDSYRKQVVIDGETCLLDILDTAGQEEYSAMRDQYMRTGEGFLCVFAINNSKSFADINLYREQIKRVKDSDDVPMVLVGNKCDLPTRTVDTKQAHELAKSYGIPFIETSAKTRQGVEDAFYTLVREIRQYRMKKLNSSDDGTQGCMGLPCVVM

Compound | NRAS/KRAS (ratio of KD for GDP-bound NRAS wild-type to KD for KRAS) [1] | HRAS/KRAS (ratio of KD for GDP-bound HRAS wild-type to KD for KRAS) [2]
CC[C@H](C)[C@@H]1NC(=O)[C@H](CC(C)C)N(C)C(=O)C[C@@H](C(=O)N2CCOCC2)N(C)C(=O)[C@H](C2CCCC2)N(C)C(=O)C2(CCCC2)NC(=O)[C@@H]2CCCN2C(=O)[C@H](CCc2ccc(C(F)(F)F)c(Cl)c2)NC(=O)CN(C)C(=O)[C@H](Cc2ccccc2)N(C)C(=O)CN(C)C(=O)CN(C)C1=O [PP0039] ([NMeL]I[Sar][Sar][NMeF][Sar][hPhe(3-Cl-4-CF3)]P[Ac5c][NMeGly(cPent)][NMeD]-Morpholide; lactam N-11) | C (A compound having a KD ratio of 0.1 or more and less than 3 is denoted as C) | C (A compound having a KD ratio of 0.1 or more and less than 3 is denoted as C)
CC[C@H](C)[C@@H]1NC(=O)[C@H](CC(C)C)N(C)C(=O)C[C@@H](C(=O)N2CCOCC2)N(C)C(=O)[C@H](C2CCCC2)N(C)C(=O)C2(CCCC2)NC(=O)[C@@H]2C[C@@H](O)CN2C(=O)[C@H](CCc2ccc(C(F)(F)F)c(Cl)c2)NC(=O)CN(C)C(=O)[C@H](Cc2ccc(C)cc2)N(CC)C(=O)CN(C)C(=O)CN(C)C1=O [PP0041] ([NMeL]I[Sar][Sar][NEtPhe(4-Me)][Sar][hPhe(3-Cl-4-CF3)][Hyp][Ac5c][NMeGly(cPent)][NMeD]-Morpholide; lactam N-11) | B (a compound having 3 or more and less than 10 is denoted as B) | C (A compound having a KD ratio of 0.1 or more and less than 3 is denoted as C)
CCO[C@@H]1C[C@H]2C(=O)NC3(CCCC3)C(=O)N(C)[C@@H](C3CCCC3)C(=O)N(C)[C@H](C(=O)N3CCOCC3)CC(=O)N(C)[C@@H](CC(C)C)C(=O)N[C@@H]([C@@H](C)CC)C(=O)N(C)CC(=O)N(C)CC(=O)N(CC)[C@@H](Cc3ccc(C)cc3)C(=O)N(C)CC(=O)N[C@@H](CCc3ccc(C(F)(F)F)c(Cl)c3)C(=O)N2C1 [PP0042] ([NMeL]I[Sar][Sar][NEtPhe(4-Me)][Sar][hPhe(3-Cl-4-CF3)][Hyp](Et)[Ac5c][NMeGly(cPent)][NMeD]-Morpholide; lactam N-11) | C (A compound having a KD ratio of 0.1 or more and less than 3 is denoted as C) | C (A compound having a KD ratio of 0.1 or more and less than 3 is denoted as C)
CC[C@H](C)[C@@H]1NC(=O)[C@H](CC(C)C)N(C)C(=O)C[C@@H](C(=O)N2CCOCC2)N(C)C(=O)[C@H]([C@@H](C)CC)N(C)C(=O)C2(CCCC2)NC(=O)[C@@H]2CCCN2C(=O)[C@H](CCc2ccc(C(F)(F)F)c(Cl)c2)NC(=O)CN(C)C(=O)[C@H](Cc2ccc(C)cc2)N(CC)C(=O)CN(C)C(=O)CN(C)C1=O [PP0043] ([NMeL]I[Sar][Sar][NEtPhe(4-Me)][Sar][hPhe(3-Cl-4-CF3)]P[Ac5c][NMeI][NMeD]-Morpholide; lactam N-11) | C (A compound having a KD ratio of 0.1 or more and less than 3 is denoted as C) | C (A compound having a KD ratio of 0.1 or more and less than 3 is denoted as C)
CC[C@H](C)[C@@H]1NC(=O)[C@H](CC(C)C)N(C)C(=O)C[C@@H](C(=O)N2CCOCC2)N(C)C(=O)[C@H](C(C)C)N(C)C(=O)C2(CCCC2)NC(=O)[C@@H]2CCCN2C(=O)[C@H](CCc2ccc(C(F)(F)F)c(Cl)c2)NC(=O)CN(C)C(=O)[C@H](Cc2ccc(C)cc2)N(CC)C(=O)CN(C)C(=O)CN(C)C1=O [PP0044] ([NMeL]I[Sar][Sar][NEtPhe(4-Me)][Sar][hPhe(3-Cl-4-CF3)]P[Ac5c][NMeV][NMeD]-Morpholide; lactam N-11) | C (A compound having a KD ratio of 0.1 or more and less than 3 is denoted as C) | C (A compound having a KD ratio of 0.1 or more and less than 3 is denoted as C)
CC[C@H](C)[C@@H]1NC(=O)[C@H](CC(C)C)N(C)C(=O)C[C@@H](C(=O)N2CCOCC2)N(C)C(=O)[C@H](CC(C)C)N(C)C(=O)C2(CCCC2)NC(=O)[C@@H]2CCCN2C(=O)[C@H](CCc2ccc(C(F)(F)F)c(Cl)c2)NC(=O)CN(C)C(=O)[C@H](Cc2ccc(C)cc2)N(CC)C(=O)CN(C)C(=O)CN(C)C1=O [PP0045] ([NMeL]I[Sar][Sar][NEtPhe(4-Me)][Sar][hPhe(3-Cl-4-CF3)]P[Ac5c][NMeL][NMeD]-Morpholide; lactam N-11) | C (A compound having a KD ratio of 0.1 or more and less than 3 is denoted as C) | C (A compound having a KD ratio of 0.1 or more and less than 3 is denoted as C)
CCCC[C@@H]1NC(=O)[C@H](CCc2ccc(C(F)(F)F)c(Cl)c2)NC(=O)CN(C)C(=O)[C@H](Cc2ccc(C)cc2)N(C)C(=O)[C@@H]2CCN2C(=O)[C@H](C)N(C)C(=O)[C@H]([C@@H](C)CC)NC(=O)[C@H](CC(C)C)N(C)C(=O)C[C@@H](C(=O)N2CCCCC2)N(C)C(=O)[C@H](CC(C)C)NC(=O)C(C)(C)N(C)C1=O [PP0047] ([NMeL]I[NMeA][Aze][NMePhe(4-Me)][Sar][hPhe(3-Cl-4-CF3)][Nle][NMeAib]L[NMeD]-Piperidide; lactam N-11) | C (A compound having a KD ratio of 0.1 or more and less than 3 is denoted as C) | C (A compound having a KD ratio of 0.1 or more and less than 3 is denoted as C)
CCCC[C@@H]1NC(=O)[C@H](CCc2ccc(C(F)(F)F)c(Cl)c2)NC(=O)CN(C)C(=O)[C@H](Cc2ccc(C)cc2)N(CC)C(=O)[C@@H]2CCN2C(=O)[C@H](C)N(C)C(=O)[C@H]([C@@H](C)CC)NC(=O)[C@H](CC(C)C)N(C)C(=O)C[C@@H](C(=O)N2CCCCC2)N(C)C(=O)[C@H](CC(C)C)NC(=O)C(C)(C)N(C)C1=O [PP0048] ([NMeL]I[NMeA][Aze][NEtPhe(4-Me)][Sar][hPhe(3-Cl-4-CF3)][Nle][NMeAib]L[NMeD]-Piperidide; lactam N-11) | C (A compound having a KD ratio of 0.1 or more and less than 3 is denoted as C) | C (A compound having a KD ratio of 0.1 or more and less than 3 is denoted as C)
CCCC[C@@H]1NC(=O)[C@H](CCc2ccc(C(F)(F)F)c(Cl)c2)NC(=O)CN(C)C(=O)[C@H](Cc2ccc(C)cc2)N(C)C(=O)CN(C)C(=O)CN(C)C(=O)[C@H]([C@@H](C)CC)NC(=O)[C@H](CC(C)C)N(C)C(=O)C[C@@H](C(=O)N2CCCCC2)N(C)C(=O)[C@H](CC(C)C)NC(=O)C(C)(C)N(C)C1=O [PP0049] ([NMeL]I[Sar][Sar][NMePhe(4-Me)][Sar][hPhe(3-Cl-4-CF3)][Nle][NMeAib]L[NMeD]-Piperidide; lactam N-11) | C (A compound having a KD ratio of 0.1 or more and less than 3 is denoted as C) | C (A compound having a KD ratio of 0.1 or more and less than 3 is denoted as C)
CCCC[C@@H]1NC(=O)[C@H](CCc2ccc(C(F)(F)F)c(Cl)c2)NC(=O)CN(C)C(=O)[C@H](Cc2ccc(C)cc2)N(CC)C(=O)CN(C)C(=O)CN(C)C(=O)[C@H]([C@@H](C)CC)NC(=O)[C@H](CC(C)C)N(C)C(=O)C[C@@H](C(=O)N2CCCCC2)N(C)C(=O)[C@H](CC(C)C)NC(=O)C(C)(C)N(C)C1=O [PP0050] ([NMeL]I[Sar][Sar][NEtPhe(4-Me)][Sar][hPhe(3-Cl-4-CF3)][Nle][NMeAib]L[NMeD]-Piperidide; lactam N-11) | B (a compound having 3 or more and less than 10 is denoted as B) | C (A compound having a KD ratio of 0.1 or more and less than 3 is denoted as C)
CC[C@H](C)[C@@H]1NC(=O)[C@H](CC(C)C)N(C)C(=O)C[C@@H](C(=O)N2C3CCC2COC3)N(C)C(=O)[C@H](C2CCCC2)N(C)C(=O)C2(CCCC2)NC(=O)[C@@H]2CCCN2C(=O)[C@H](CCc2ccc(C(F)(F)F)c(Cl)c2)NC(=O)CN(C)C(=O)[C@H](Cc2ccc(C)cc2)N(CC)C(=O)CN(C)C(=O)CN(C)C1=O [PP0051] ([NMeL]I[Sar][Sar][NEtPhe(4-Me)][Sar][hPhe(3-Cl-4-CF3)]P[Ac5c][NMeGly(cPent)][NMeD]-{3Oxa8azabicyclo(3.2.1)octane}; lactam N-11) | C (A compound having a KD ratio of 0.1 or more and less than 3 is denoted as C) | C (A compound having a KD ratio of 0.1 or more and less than 3 is denoted as C)
CCCN1C(=O)[C@@H]2CCN2C(=O)[C@H](C)N(C)C(=O)[C@H]([C@@H](C)CC)NC(=O)[C@H](CC(C)C)N(C)C(=O)C[C@@H](C(=O)N2CCOCC2)N(C)C(=O)[C@H](C2CCCC2)N(C)C(=O)C2(CCCC2)NC(=O)[C@@H]2CCCN2C(=O)[C@H](CCc2ccc(C(F)(F)F)c(Cl)c2)NC(=O)CN(C)C(=O)[C@@H]1Cc1ccc(C)cc1 [PP0052] ([NMeL]I[NMeA][Aze][NPrPhe(4-Me)][Sar][hPhe(3-Cl-4-CF3)]P[Ac5c][NMeGly(cPent)][NMeD]-Morpholide; lactam N-11) | C (A compound having a KD ratio of 0.1 or more and less than 3 is denoted as C) | B (a compound having 3 or more and less than 10 is denoted as B)
CCCN1C(=O)[C@@H]2CCN2C(=O)[C@H](C)N(C)C(=O)[C@H]([C@@H](C)CC)NC(=O)[C@H](CC(C)C)N(C)C(=O)C[C@@H](C(=O)N2CCOCC2)N(C)C(=O)[C@H](C2CCCC2)N(C)C(=O)C2(CCCC2)NC(=O)[C@@H]2CCCN2C(=O)[C@H](CCc2ccc(C(F)(F)F)c(Cl)c2)NC(=O)CN(C)C(=O)[C@@H]1Cc1ccc(C(F)(F)F)cc1 [PP0053] ([NMeL]I[NMeA][Aze][NPrPhe(4-CF3)][Sar][hPhe(3-Cl-4-CF3)]P[Ac5c][NMeGly(cPent)][NMeD]-Morpholide; lactam N-11) | C (A compound having a KD ratio of 0.1 or more and less than 3 is denoted as C) | C (A compound having a KD ratio of 0.1 or more and less than 3 is denoted as C)
